Laboratory results: US10307350B2, “Morphogenetically active amorphous calcium polyphosphate nanoparticles for therapeutic applications” (NanotecMARIN GmbH, priority 2014, dated 2019)

Assays:
Type in all cases: cell-based, mouse
MC3T3 cells [1] = experiment: Cell proliferation / cell viability XTT assay; settings: retinol 0.3 to 30 μM, absence of aCa-polyP-NP, 72 h
Procedure: (§1) Mouse calvaria cells MC3T3-E1 cells (ATCC-CRL-2593) are used for the experiments and cultivated in a-MEM (Gibco—Invitrogen) containing 20% fetal calf serum [FCS] (Gibco). The medium contains 2 mM L-glutamine, 1 mM Na-pyruvate and 50 μg/ml of gentamycin. […] Reaching 80% confluency, the cells are detached using trypsin/EDTA and continuously subcultured at a density of 5·10^3 cells/ml. The cells are seeded at a density of 5·10^3 cells/well. Medium/serum change was every 3 d.
The aCa-polyP-NP are added at the indicated concentration to the cultures, usually 3 μg/ml. Retinol is added in parallel; it is dissolved at 1 mg/ml ethanol and then diluted in DMSO [dimethyl sulfoxide] at the indicated concentrations. […]
Cell proliferation can be determined, for example, by a colorimetric method based on the tetrazolium salt XTT (Cell Proliferation Kit II; Roche). The absorbance is determined at […] and subtracted form the background values (500 nm). In the experiments described in Examples, the viable cells have been determined after 72 h.

MC3T3 cells [2] = experiment: Microscopic density of attached cells after 72 h; settings: single component: aCa-polyP-NP 3 μg/ml or retinol 10 μM
Procedure: as §1
This synergistically-acting effect of the two test components can also be followed microscopically. In the absence of any of the components the density of the MC3T3 cells after the 72 h incubation is only low. […] Likewise low is the number of cells onto the plastic surface if 10 μM retinol is added.

[3] = tested on: collagen type III (COL-III); experiment: Collagen expression RT-qPCR in MC3T3-E1 cells, collagen type III; settings: single component: 3 μM retinol alone, or polyP sample in the absence of retinol; untreated 0.17±0.02
Procedure: Mouse calvaria cells MC3T3-E1 cells (ATCC-CRL-2593) are used for the experiments and cultivated in a-MEM (Gibco-Invitrogen) containing 20% fetal calf serum [FCS] (Gibco). The medium contains 2 mM L-glutamine, 1 mM Na-pyruvate and 50 μg/ml of gentamycin. […] Reaching 80% confluency, the cells are detached using trypsin/EDTA and continuously subcultured at a density of 5·10^3 cells/ml. The cells are seeded at a density of 5·10^3 cells/well. Medium/serum change was every 3 d. The aCa-polyP-NP are added at the indicated concentration to the cultures, usually 3 μg/ml. Retinol is added in parallel; it is dissolved at 1 mg/ml ethanol and then diluted in DMSO [dimethyl sulfoxide] at the indicated concentrations. […], Wang […], Kropf […]. […] Acta Biomaterialia 2011; 7:2661-2671) is studied in parallel. […] After a 5 d incubation period the cells were collected and subjected to RT-qPCR analyses. […] The effect of 3 μM retinol on Na-polyP and on different nanoparticles as well as on the retinol/nanospheres was tested in a comparative way. The expression level of collagen type III was determined by RT-qPCR (FIG. 11). The expression values are correlated to the expression of the house-keeping gene GAPDH. […] Then the ratios between the levels in the cells, exposed to retinol or the nanoparticles/nanospheres alone or together, have been calculated and plotted.

Question: Which results are given for CC1=C(/C=C/C(C)=C/C=C/C(C)=C/CO)C(C)(C)CCC1 [retinol, all-trans retinol]?
Answer: growth rate of the MC3T3 cells (MC3T3 cells [1]): did not change significantly; density of the cells attached to the substrate (MC3T3 cells [2]): low; collagen type III expression level correlated to GAPDH [3]: 0.25±0.03
